Test results taken from patent US20240197788A1, “PHARMACEUTICAL COMPOSITION FOR PREVENTING OR TREATING PARKINSON'S DISEASE, AND PREPARATION METHOD THEREOF” (INDUSTRY FOUNDATION OF CHONNAM NATIONAL UNIVERSITY, priority 2021, published 2024).

What was measured:
[1] = test system: Triton X-100 insoluble alpha-synuclein (p-S129 α-syn, total α-syn); test: Western blot of Triton X-100 insoluble alpha-synuclein in SH-SY5Y cells; assay type: cell-based, human; conditions: ROT-treated group, insoluble fraction
Experimental: (§1) SH-SY5Y cells were divided into a treated group treated with ROT (0.5 μM) for 24 hours and an untreated group, followed by culturing in DMSO solvent. Thereafter, the culture was removed, and the cells were divided into hBMSC-CM-treated group, NI-hBMSC-CM-treated group, hADSC-CM-treated group and NI-hADSC-CM-treated group in 50% diluted DMEM, followed by culturing each group in ROT (0.5 μM)-treated and untreated groups, respectively, for 24 hours. FBS was maintained at a concentration of 1% throughout the study. Phase contrast images were taken using an Olympus microscope (CKX41) equipped with a camera. Damaged and depleted suspended cells in the culture and adherent cells isolated by trypsinization were combined and a trypan blue cell counting method was applied. The number of surviving cells was counted using LUNA-II™ (Logos Biosystems, Gyeonggi-do, Republic of Korea) automatic cell counter. Cell count analysis was performed three times and expressed as a percentage (%) of the control.
After 48 hours of experiment, SH-SY5Y cells were lysed in cell lysis buffer containing a protease inhibitor and a phosphatase inhibitor together with the above-described 1% Triton X-100 for 30 minutes. […] The protein concentration was measured using a BCA protein assay kit. […] The same protein load was assessed by the expression level of GAPDH used as an internal control. […]

[2] = Rotenone toxicity, trypan blue cell counting of surviving cells; assay type: cell-based; conditions: human, SH-SY5Y neuroblastoma cells, 0.5 μM rotenone
Experimental: The human neuroblastoma cell line, that is, SH-SY5Y (RRID: CVCL 0019; ATCC® CRL-2266) was cultured in DMEM supplemented with 10% FBS and 1% penicillin-streptomycin (Welgene Inc., Gyeonsangbuk-do, Republic of Korea) at 37° C. under a wet condition of 5% CO2/95% air. The mixed culture (passages 15-22) was washed with phosphate-buffered saline (PBS), the cells were isolated with 0.25% trypsin-EDTA solution and then reseeded in DMEM containing 1% FBS at 5×10^4 cells/Ml. Then, after overnight incubation, it was used for experiments. ROT (Sigma R8875) stock was prepared at a concentration of 10 mM in […] (DMSO; Sigma D2650) solvent, stored at −80° C., and used within 6 months. Before starting each experiment, a serum-free DMEM culture was diluted to prepare a ROT stock working solution.
SH-SY5Y cells were divided into a treated group treated with ROT (0.5 μM) for 24 hours and an untreated group, followed by culturing in DMSO solvent. […] The number of surviving cells was counted using LUNA-II™ (Logos Biosystems, Gyeonggi-do, Republic of Korea) automatic cell counter. Cell count analysis was performed three times and expressed as a percentage (%) of the control.

[3] = test system: procaspase-9, 3 and 7, PARP-1; test: Western blot of caspase proteins and PARP-1 cleavage in SH-SY5Y cells; assay type: cell-based, human; conditions: rotenone alone; FIGS. 17A-17D, 18A-18D
Experimental: as §1, with “Damaged and depleted suspended cells in the culture and adherent cells isolated by trypsinization were combined and a trypan blue cell counting method was applied.” left out
(§2) After incubation for a total of 48 hours, the cells were scraped using a cell scraper, washed twice with PBS, and then exposed to a cell lysis buffer supplemented with protease inhibitor and phosphatase inhibitor (100 mM Tris-HCl (pH 7.6), 100 mM NaCl, 1% Nonidet P-40, 1% sodium deoxycholate, 0.1% sodium dodecyl sulfate (SDS) and 1% Triton X-100), followed by incubation on ice for 30 minutes. […] The protein concentration was measured using a BCA protein assay kit (Thermo Fisher Scientific, Waltham, MA, USA #23225) according to the manufacturer's instructions. […]

[4] = test system: NF—H, β3-tubulin, NeuN, SYP; test: Western blot of neuron-specific proteins in SH-SY5Y cells; assay type: cell-based, human; conditions: rotenone treatment (0.5 μM, 48 hours); FIGS. 13A-13D, 14A-14D
Experimental: (§3) After incubation for a total of 48 hours, the cells were scraped using a cell scraper, washed twice with PBS, and then exposed to a cell lysis buffer supplemented with protease inhibitor and phosphatase inhibitor (100 mM Tris-HCl (pH 7.6), 100 mM NaCl, 1% Nonidet P-40, 1% sodium deoxycholate, 0.1% sodium dodecyl sulfate (SDS) and 1% Triton X-100), followed by incubation on ice for 30 minutes. The eluate was centrifuged at 13,200 rpm and at 4° C. for 15 minutes, and the supernatant was collected. The protein concentration was measured using a BCA protein assay kit (Thermo Fisher Scientific, Waltham, MA, USA #23225) according to the manufacturer's instructions.
Protein (15 μg) was separated on an 8-14% SDS-polyacrylamide gel and transferred to a nitrocellulose membrane (Millipore, Berlington, MA, USA, HATF00010), and the membrane was washed with PBS containing 0.5% (v/v) Tween 20 (PBS-T), followed by blocking with 5% (v/v) non-fat dry milk solution included in the preparation of PBS-T. Then, it was incubated overnight at 4° C. with the primary antibody. Thereafter, the cell membrane was exposed to a secondary antibody conjugated to horseradish peroxidase at room temperature (RT) for 2-3 hours, and washed three times with PBS-T. Signals were detected by an enhanced chemiluminescence (ECL) system (Millipore, WBLUR0500) using a LAS 4000 luminescent image analyzer (GE Healthcare, Japan). […]

BAX, Bcl-2 and Mcl-1 = test: Western blot of apoptosis-related proteins Bax, Bcl-2, Mcl-1 in SH-SY5Y cells; assay type: cell-based, human; conditions: rotenone alone
Experimental: as §1, §3
Protein (15 μg) was separated on an 8-14% SDS-polyacrylamide gel and transferred to a nitrocellulose membrane (Millipore, Berlington, MA, USA, HATF00010), and the membrane was washed with PBS containing 0.5% (v/v) Tween 20 (PBS-T), followed by blocking with 5% (v/v) non-fat dry milk solution included in the preparation of PBS-T. Then, it was incubated overnight at 4° C. with the primary antibody. […]

[5] = test system: tyrosine hydroxylase (TH); test: Western blot of tyrosine hydroxylase protein expression in SH-SY5Y cells; assay type: cell-based, human; conditions: 0.5 μM rotenone alone; FIGS. 3 and 4
Experimental: as §1, with “Damaged and depleted suspended cells in the culture and adherent cells isolated by trypsinization were combined and a trypan blue cell counting method was applied.” left out
as §2

## C=C(C)[C@H]1Cc2c(ccc3c2O[C@@H]2COc4cc(OC)c(OC)cc4[C@@H]2C3=O)O1 [rotenone]
[1]
  phosphorylated S129 alpha-synuclein/total alpha-synuclein ratio with respect to dimers and monomers: significantly decreased
[2]
  viability at 48 h, 0.5 μM: 55%
[3]
  cleaved-PARP/pro-PARP ratio: greatly increased
  expression of procaspase-9, 3 and 7: greatly decreased
[4]
  expression of NF—H, β3-tubulin, NeuN and SYP: reduced
BAX, Bcl-2 and Mcl-1
  Bax/Bcl-2 ratio: greatly increased
BAX, Bcl-2 and Mcl-1; FIGS. 15A-15D, 16A-16D
  Bax expression: significantly increased
  expression of Bcl-2 and Mcl-1: significantly inhibited
[5]
  protein expression of tyrosine hydroxylase: decreased
